Values joined by “and” are separate entries in the source; they are usually repeats but may differ in a detail not shown here. Identical values can stand only once.
Experiments:
[1] = target: T1, ERα LBD (Homo sapiens, UniProt P03372); experiment: ERα-SRC1 agonistic yeast two hybrid (Y2H) assay, β-galactosidase activity; type: cell-based; details: for EC50: Y2H ERα-SRC1, yeast L40, triplicates
T1 construct: expressed in transfected cells; host or cells: Saccharomyces cerevisiae L40
T1 sequence (P03372 312-595): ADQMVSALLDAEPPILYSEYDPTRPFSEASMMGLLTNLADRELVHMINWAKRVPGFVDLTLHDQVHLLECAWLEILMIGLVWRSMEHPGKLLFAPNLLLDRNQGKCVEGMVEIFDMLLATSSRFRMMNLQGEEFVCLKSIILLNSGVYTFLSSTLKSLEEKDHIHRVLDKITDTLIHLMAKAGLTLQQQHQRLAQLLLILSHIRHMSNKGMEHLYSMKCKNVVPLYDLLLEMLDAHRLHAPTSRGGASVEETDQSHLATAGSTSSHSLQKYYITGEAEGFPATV
T1 sequence (Q15788 613-773 partner limits assumed): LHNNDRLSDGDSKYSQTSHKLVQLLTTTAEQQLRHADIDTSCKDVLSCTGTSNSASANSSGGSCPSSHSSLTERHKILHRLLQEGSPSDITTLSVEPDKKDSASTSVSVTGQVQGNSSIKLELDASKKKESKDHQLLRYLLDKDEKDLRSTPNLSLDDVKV
Description: (§1) Microbial strains. Cloning information and used primers for the construction of EcHpaBC and MaFMO encoded vectors are listed in Supplementary Table S1. […] Three EcHpaB mutants were made by site-directed mutagenesis using the listed overlapping primer-containing intended mutations. […] These sets of two vectors (pBTM116:LexA DBD-ERα LBD & pVP16:VP16 AD-(Gly4Ser)2-tSRC1 or pBTM116:LexA DBD-ERβ LBD & pVP16:VP16 AD-(Gly4Ser)2-tSRC1) were transformed in the L40 strains.
(§2) Yeast-two-hybrid assay. The transformed L40 strains were grown in synthetic leucine and tryptophan drop-out (SD L^−W^-) media. […] These plates were incubated at 30 °C with shaking of 1,000 rpm for overnight (∼20 h). After the incubation, the cultures were centrifuged, and the supernatants were discarded. In each well, 500 μL Z-buffer (60 mM Na2HPO4, 40 mM NaH2PO4, 10 mM KCl, and 1 mM MgSO4; pH 7.0) with 1 mM dithiothreitol (DTT) was filled and resuspended. 50 μL of each suspension was taken for OD600 measurement before chloroform treatment. (This value was not used for the measurement of the Miller unit.) Chloroform 50 μL was added to each 450 μL of the suspension, and the solution mixture was shaked for 1 min at 1,000 rpm to disrupt the cell membrane. The disrupted suspensions were kept still at room temperature for 2 min, and 50 μL aqueous aliquots were taken. In polystyrene flat-bottomed 96-well plate, each well was charged with 100 μL of Z-buffer with 1 mM DTT, 50 μL aqueous aliquot, and 50 μL of Z-buffer with 1 mM DTT and 0.4 mg/ml ortho-nitrophenyl-β-galactoside (ONPG). Initially, OD600 of all the wells was measured, and subsequently, OD420 of the same wells was measured for 30 min with a minute interval. […] E/E0=ε/1+10^n(log(EC50)−log([L])),
(§3) where E/E 0 is the normalized Miller unit and ε is the maximum response relative to E2 (ε(E2) = 1). [L] is the concentration of ligands and n is the Hill’s coefficient.

[2] = DPPH radical scavenging assay
Procedure: DPPH radical scavenging assay. In each well of polystyrene flat-bottom 96-well plates, 200 μL of solution containing 0.1 mM 2,2-diphenyl-1-(2,4,6-trinitrophenyl)hydrazin-1-yl (DPPH) radical, 50% (v/v) MeOH, 10% (v/v) DMSO, specific amount of compounds, and 1x concentration of phosphate buffered saline (PBS) was made. The PBS was prepared with 4x concentration of its original recipe with pH 7.4 and diluted by adding 50 μL in the solution mixture. The plates were incubated at 37°C for 30 min. The OD520 and OD495 of incubated plates were measured. The radical scavenging activity was defined as (OD520/OD495)DMSO- OD520/OD495. (OD520/OD495)DMSO is the OD520/OD495 of the DMSO control without antioxidative compounds. The radical scavenging activity values were normalized with the value of the positive control (1 mM of L-ascorbic acid). The data were triplicated, and the average values were regressed using the following formula.
where E/E 0 is the normalized radical scavenging activity, [L] is the concentration of compounds, and n is the Hill’s coefficient, and EC50 is the value of effective concentration at E/E 0 = 0.5.

[3] = target: T2, ERβ LBD (Homo sapiens, UniProt Q92731); experiment: ERβ-SRC1 agonistic yeast two hybrid (Y2H) assay, β-galactosidase activity; type: cell-based; details: for β/α ratio of EC50^-1: ERβ over ERα, Y2H; for EC50: Y2H ERβ-SRC1, yeast L40, triplicates
T2 construct: LexA DBD-ERβ LBD (264–510); expressed in transfected cells; host or cells: Saccharomyces cerevisiae L40
T2 sequence (Q92731 264-510, one chain of several): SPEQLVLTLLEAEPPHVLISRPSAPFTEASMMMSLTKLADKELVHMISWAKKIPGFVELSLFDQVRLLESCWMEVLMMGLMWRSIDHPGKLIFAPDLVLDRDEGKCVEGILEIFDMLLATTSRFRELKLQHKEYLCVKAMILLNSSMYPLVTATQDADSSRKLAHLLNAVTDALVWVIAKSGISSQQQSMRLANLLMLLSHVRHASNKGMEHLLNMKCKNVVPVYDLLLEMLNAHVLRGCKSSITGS
Description: as §1, §2, §3

[4] = test system: ERα; set-up: method as in Lee et al., 2017; details: ref Lee et al., 2017; cited from earlier work

Structure (SMILES)	fold higher EC50 than (S)-equol ([1]; ERα)	EC50 [1]	antioxidative activity higher than 3′HD [2]	fold higher EC50 than (S)-equol ([3]; ERβ)	β/α ratio of EC50^-1 [3]	EC50 [3]	response in Y2H agonist assay ([1]; ERα, concentrations in the range of 10^–8∼10^–3 M)	binding affinity ERα versus ERβ [4]	response in Y2H agonist assay ([3]; ERβ, concentrations in the range of 10^–8∼10^–3 M)	lower β/α ratio response than that of 17β-estradiol [3] [%]	weaker estrogenic activity than E2 ([1]; ERα)	weaker estrogenic activity than E2 ([3]; ERβ)
Oc1ccc2c(c1)OC[C@H](c1ccc(O)c(O)c1)C2 [3'-hydroxy-(S)-equol, 3′-hydroxy-(S)-equol]	30∼200 fold	10 to 100 µM and 20.6 µM	more than 40%	30∼200 fold	1.15	10 to 100 µM and 17.9 µM	–	–	–	–	–	–
Oc1ccc([C@H]2COc3cc(O)cc(O)c3C2)cc1 [5-hydroxy-(S)-equol]	–	–	–	–	–	–	did not show any response	higher binding affinity to ERα than ERβ	did not show any response	–	–	–
Oc1ccc([C@H]2COc3cc(O)c(O)cc3C2)cc1 [6-hydroxy-(S)-equol]	30∼200 fold	10 to 100 µM and 102 µM	–	30∼200 fold	1.00	10 to 100 µM and 102 µM	–	–	–	10	–	–
Oc1ccc([C@H]2COc3cc(O)ccc3C2)cc1 [(S)-equol]	–	0.665 µM	–	–	1.31	0.506 µM	–	–	–	–	about 3 orders of magnitude	about 3 orders of magnitude
